Where two headings read alike, the source gives them in different places.
How the values were obtained:
Y641N EZH2 = Y641N EZH2 (Homo sapiens, UniProt Q15910, Y641N); assay: Y641N EZH2 assay: as EZH2 assay, with reconstituted H3K27Me2 oligonucleosomes as substrate; type: biochemical
EZH2 (rPRC2) = EZH2 (rPRC2) (Homo sapiens, UniProt Q15910); assay: EZH2 assay: rPRC2, biotinylated oligonucleosomes, 3H SAM methyl transfer (FlashPlate scintillation); type: biochemical; details: biotinylated oligonucleosome substrate
[1] = Y641N mutant EZH2, H3K27Me2 oligonucleosome substrate, read-out: Y641N EZH2 IC50
[2] = wild-type EZH2 (rPRC2), read-out: EZH2 IC50
[3] = Y641N EZH2 IC50, Y641N mutant EZH2, H3K27Me2 oligonucleosome substrate
[4] = EZH2 IC50, wild-type EZH2 (rPRC2)
[5] = Y641N mutant EZH2, H3K27Me2 oligonucleosome substrate

Sequence of EZH2 (rPRC2) (Q15910 whole entry): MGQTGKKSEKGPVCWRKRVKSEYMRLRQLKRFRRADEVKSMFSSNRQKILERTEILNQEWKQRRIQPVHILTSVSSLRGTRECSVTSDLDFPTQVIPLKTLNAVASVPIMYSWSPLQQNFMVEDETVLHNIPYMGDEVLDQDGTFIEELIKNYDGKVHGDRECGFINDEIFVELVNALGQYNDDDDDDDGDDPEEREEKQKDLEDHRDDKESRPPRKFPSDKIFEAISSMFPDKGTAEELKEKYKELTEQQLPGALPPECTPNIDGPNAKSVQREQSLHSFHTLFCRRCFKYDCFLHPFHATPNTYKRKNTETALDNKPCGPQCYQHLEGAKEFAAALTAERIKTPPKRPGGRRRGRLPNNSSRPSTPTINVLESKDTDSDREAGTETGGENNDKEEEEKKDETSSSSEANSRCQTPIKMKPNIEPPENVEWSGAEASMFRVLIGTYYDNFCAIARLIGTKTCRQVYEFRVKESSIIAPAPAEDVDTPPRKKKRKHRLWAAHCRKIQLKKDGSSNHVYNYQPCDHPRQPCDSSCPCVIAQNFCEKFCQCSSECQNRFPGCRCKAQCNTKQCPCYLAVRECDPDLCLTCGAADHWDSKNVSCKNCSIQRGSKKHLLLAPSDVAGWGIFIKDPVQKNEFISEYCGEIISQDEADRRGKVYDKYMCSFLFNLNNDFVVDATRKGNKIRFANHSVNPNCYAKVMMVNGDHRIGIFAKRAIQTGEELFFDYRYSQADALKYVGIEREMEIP
Sequence of EZH2 (rPRC2) (O75530 whole entry partner): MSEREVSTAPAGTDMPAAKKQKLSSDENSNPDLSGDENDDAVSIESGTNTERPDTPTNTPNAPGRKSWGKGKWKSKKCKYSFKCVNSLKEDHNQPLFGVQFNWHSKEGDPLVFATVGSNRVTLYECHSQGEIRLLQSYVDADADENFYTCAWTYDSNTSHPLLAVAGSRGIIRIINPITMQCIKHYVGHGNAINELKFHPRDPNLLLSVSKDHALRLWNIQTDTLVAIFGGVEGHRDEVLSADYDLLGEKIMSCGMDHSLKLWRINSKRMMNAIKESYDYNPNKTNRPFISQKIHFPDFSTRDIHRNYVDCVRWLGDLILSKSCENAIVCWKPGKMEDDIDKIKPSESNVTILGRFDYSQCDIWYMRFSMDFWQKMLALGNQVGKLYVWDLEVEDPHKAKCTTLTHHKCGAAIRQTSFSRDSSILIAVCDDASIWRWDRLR
Sequence of EZH2 (rPRC2) (Q15022 whole entry partner): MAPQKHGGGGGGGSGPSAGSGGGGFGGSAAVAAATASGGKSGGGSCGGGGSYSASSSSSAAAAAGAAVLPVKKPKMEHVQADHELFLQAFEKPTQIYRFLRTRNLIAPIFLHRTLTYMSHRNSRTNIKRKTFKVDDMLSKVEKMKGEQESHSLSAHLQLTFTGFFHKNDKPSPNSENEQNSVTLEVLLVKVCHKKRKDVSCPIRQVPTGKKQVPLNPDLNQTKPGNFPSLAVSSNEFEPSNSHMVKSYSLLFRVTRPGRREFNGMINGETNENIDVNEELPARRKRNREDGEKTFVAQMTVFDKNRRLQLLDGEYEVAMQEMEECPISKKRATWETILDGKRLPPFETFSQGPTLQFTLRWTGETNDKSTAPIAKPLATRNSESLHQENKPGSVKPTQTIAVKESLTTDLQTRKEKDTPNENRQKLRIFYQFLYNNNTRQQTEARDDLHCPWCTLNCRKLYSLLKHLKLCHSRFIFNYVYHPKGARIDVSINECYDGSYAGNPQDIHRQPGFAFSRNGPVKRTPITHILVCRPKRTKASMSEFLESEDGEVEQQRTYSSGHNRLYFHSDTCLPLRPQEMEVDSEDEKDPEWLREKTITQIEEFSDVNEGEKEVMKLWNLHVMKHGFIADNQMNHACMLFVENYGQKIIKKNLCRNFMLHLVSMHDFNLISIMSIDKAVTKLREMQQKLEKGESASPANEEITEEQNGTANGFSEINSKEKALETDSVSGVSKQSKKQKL
Sequence of Y641N EZH2 (Q15910 whole entry Y641N): as the sequence (Q15910 whole entry) above, with Y641N counted along it
Sequence of Y641N EZH2 (O75530 whole entry partner): as the sequence (O75530 whole entry partner) above
Sequence of Y641N EZH2 (Q15022 whole entry partner): as the sequence (Q15022 whole entry partner) above

SMILES | IC50 (Y641N EZH2; [1]) [nM] | IC50 (EZH2 (rPRC2); [2]) [nM] | IC50 (Y641N EZH2; [3]) [nM] | IC50 (EZH2 (rPRC2); [4]) [nM] | further results
Cc1cc(C)c(CNC(=O)c2c(C)n([C@H](C)c3ccccc3)c3nc(C4CCOCC4)ncc23)c(O)n1 [Compound 168, (R)-N-((2-hydroxy-4,6-dimethylpyridin-3-yl)methyl)-6-methyl-7-(1-phenylethyl)-2-(tetrahydro-2H-pyran-4-yl)-7H-pyrrolo[2,3-d]pyrimidine-5-carboxamide] | 1000 to 10000 | 100 to 1000 | – | – | –
Cc1cc(C)c(CNC(=O)c2c(C)n(C(C)c3ccccc3)c3cnccc23)c(=O)[nH]1 (single isomer, unassigned) [Compound 248, (R or S)—N-((4,6-dimethyl-2-oxo-1,2-dihydropyridin-3-yl)methyl)-2-methyl-1-(1-phenylethyl)-1H-pyrrolo[2,3-c]pyridine-3-carboxamide] | – | – | 100 to 1000 | – | IC50 (EZH2 (rPRC2); read-out: EZH2 IC50, wild-type EZH2 (rPRC2)): < 100 nM
COc1cccc(C(C)n2c(C)c(C(=O)NCc3c(C)cc(C)[nH]c3=O)c3cccnc32)c1 (racemic) [Compound 206, (±)-N-((4,6-dimethyl-2-oxo-1,2-dihydropyridin-3-yl)methyl)-1-(1-(3-methoxyphenyl)ethyl)-2-methyl-1H-pyrrolo[2,3-b]pyridine-3-carboxamide] | – | – | 1000 to 10000 | 100 to 1000 | –
COc1cc(C)[nH]c(=O)c1CNC(=O)c1c(C)n(C(C)c2ccn(C)c(=O)c2)c2ncccc12 (single isomer, unassigned) [Compound 269, (R or S)-N-((4-methoxy-6-methyl-2-oxo-1,2-dihydropyridin-3-yl)methyl)-2-methyl-1-(1-(1-methyl-2-oxo-1,2-dihydropyridin-4-yl)ethyl)-1H-pyrrolo[2,3-b]pyridine-3-carboxamide] | – | – | 1000 to 10000 | 100 to 1000 | –
COc1cc(C)[nH]c(=O)c1CNC(=O)c1c(C)n([C@@H](C)c2ccccc2)c2ncccc12 [Compound 276, (S)-N-((4-methoxy-6-methyl-2-oxo-1,2-dihydropyridin-3-yl)methyl)-2-methyl-1-(1-phenylethyl)-1H-pyrrolo[2,3-b]pyridine-3-carboxamide] | – | – | < 100 | < 100 | –
COc1cc(C)[nH]c(=O)c1CNC(=O)c1c(C)n(C(C)CS(C)(=O)=O)c2ccccc12 (single isomer, unassigned) [Compound 278, (R or S)-N-((4-methoxy-6-methyl-2-oxo-1,2-dihydropyridin-3-yl)methyl)-2-methyl-1-(1-(methylsulfonyl)propan-2-yl)-1H-indole-3-carboxamide] | – | – | 1000 to 10000 | 100 to 1000 | –
COc1cc(C)[nH]c(=O)c1CNC(=O)c1c(C)n(C(C)CC(N)=O)c2ncccc12 (stereo not shown) [Compound 296, 1-(4-amino-4-oxobutan-2-yl)-N-((4-methoxy-6-methyl-2-oxo-1,2-dihydropyridin-3-yl)methyl)-2-methyl-1H-pyrrolo[2,3-b]pyridine-3-carboxamide] | 1000 to 10000 | 100 to 1000 | – | – | –
Cc1cc(C)c(CNC(=O)c2c(C)n(C(C)c3ccccc3)c3cccnc23)c(O)n1 (racemic) [Compound 126, N-((2-hydroxy-4,6-dimethylpyridin-3-yl)methyl)-2-methyl-1-(1-phenylethyl)-1H-pyrrolo[3,2-b]pyridine-3-carboxamide] | – | – | 1000 to 10000 | 100 to 1000 | –
COc1cc(C)[nH]c(=O)c1CNC(=O)c1c(C)n(C(C)C(C)OC)c2ncccc12 (single isomer, unassigned) [Compound 302, N-((4-methoxy-6-methyl-2-oxo-1,2-dihydropyridin-3-yl)methyl)-1-((2R or 2S, 3R or 3S)-3-methoxybutan-2-yl)-2-methyl-1H-pyrrolo[2,3-b]pyridine-3-carboxamide] | – | – | 1000 to 10000 | 100 to 1000 | –
Cc1cc(C)c(CNC(=O)c2c(C)n([C@H](C)c3ccccc3)c3nc(Cl)ncc23)c(O)n1 [Compound 167] | – | – | 100 to 1000 | 100 to 1000 | –
Cc1cc(C)c(CNC(=O)c2c(C)n(-c3cccc(C)c3C)c3ccccc23)c(=O)[nH]1 [Compound 173, N-((4,6-dimethyl-2-oxo-1,2-dihydropyridin-3-yl)methyl)-1-(2,3-dimethylphenyl)-2-methyl-1H-indole-3-carboxamide] | 100 to 1000 | < 100 | – | – | –
COc1cc(C)[nH]c(=O)c1CNC(=O)c1c(C)n(C(C)CC#N)c2ncccc12 (racemic) [Compound 301, (±)-1-(1-cyanopropan-2-yl)-N-((4-methoxy-6-methyl-2-oxo-1,2-dihydropyridin-3-yl)methyl)-2-methyl-1H-pyrrolo[2,3-b]pyridine-3-carboxamide] | – | – | 100 to 1000 | < 100 | –
CCC(OC)C(C)n1c(C)c(C(=O)NCc2c(C)cc(C)[nH]c2=O)c2ccccc21 (racemic) [Compound 275, (±)-N-((4,6-dimethyl-2-oxo-1,2-dihydropyridin-3-yl)methyl)-1-(3-methoxypentan-2-yl)-2-methyl-1H-indole-3-carboxamide] | – | – | < 100 | < 100 | –
Cc1cc(C)c(CNC(=O)c2cnn(C(C)c3ccccc3)c2C)c(O)n1 (single isomer, unassigned) [Compound 107, (R or S)—N-((2-hydroxy-4,6-dimethylpyridin-3-yl)methyl)-5-methyl-1-(1-phenylethyl)-1H-pyrazole-4-carboxamide] | > 10000 | > 10000 | – | – | –
COc1cc(C)[nH]c(=O)c1CNC(=O)c1c(C)n(C(C)C2CCC(F)(F)CC2)c2ncncc12 (racemic) [Compound 334, (±)-7-(1-(4,4-difluorocyclohexyl)ethyl)-N-((4-methoxy-6-methyl-2-oxo-1,2-dihydropyridin-3-yl)methyl)-6-methyl-7H-pyrrolo[2,3-d]pyrimidine-5-carboxamide] | – | – | 100 to 1000 | < 100 | –
COc1cc(C)[nH]c(=O)c1CNC(=O)c1c(C)n(C(C)C(C)OC)c2cc(S(C)(=O)=O)ccc12 (stereo not shown) [Compound 323, N-((4-methoxy-6-methyl-2-oxo-1,2-dihydropyridin-3-yl)methyl)-1-(3-methoxybutan-2-yl)-2-methyl-6-(methylsulfonyl)-1H-indole-3-carboxamide] | – | – | 100 to 1000 | < 100 | –
COC(C)C(C)n1c(C)c(C(=O)NCc2c(C)cc(C)[nH]c2=O)c2ccc(S(C)(=O)=O)cc21 (stereo not shown) [Compound 322, N-((4,6-dimethyl-2-oxo-1,2-dihydropyridin-3-yl)methyl)-1-(3-methoxybutan-2-yl)-2-methyl-6-(methylsulfonyl)-1H-indole-3-carboxamide] | – | – | 100 to 1000 | 100 to 1000 | –
Cc1cc(C)c(CNC(=O)c2c(C)n(C(C)CN3CCCCC3)c3ncccc23)c(=O)[nH]1 (racemic) [Compound 272, (±)-N-((4,6-dimethyl-2-oxo-1,2-dihydropyridin-3-yl)methyl)-2-methyl-1-(1-(piperidin-1-yl)propan-2-yl)-1H-pyrrolo[2,3-b]pyridine-3-carboxamide] | – | – | – | 1000 to 10000 | Y641N EZH2 IC50 (Y641N EZH2; [5]): *(10 μM)
COc1cc(C)[nH]c(=O)c1CNC(=O)c1c(C)n(C(=O)C2CCOCC2)c2ccccc12 [Compound 372, N-((4-methoxy-6-methyl-2-oxo-1,2-dihydropyridin-3-yl)methyl)-2-methyl-1-(tetrahydro-2H-pyran-4-carbonyl)-1H-indole-3-carboxamide] | – | 100 to 1000 | – | – | Y641N EZH2 IC50 (Y641N EZH2; [5]): *(0.5 uM)
CC[C@@H](C)n1c(C)c(C(=O)NCc2c(C)cc(C)nc2O)c2cnc(-c3ccccc3)nc21 [Compound 188, (R)-7-(sec-butyl)-N-((2-hydroxy-4,6-dimethylpyridin-3-yl)methyl)-6-methyl-2-phenyl-7H-pyrrolo [2,3-d]pyrimidine-5-carboxamide] | 1000 to 10000 | 100 to 1000 | – | – | –
COCCOC(C)C(C)n1c(C)c(C(=O)NCc2c(OC)cc(C)[nH]c2=O)c2cccnc21 (racemic) [Compound 297, (±)-N-((4-methoxy-6-methyl-2-oxo-1,2-dihydropyridin-3-yl)methyl)-1-(3-(2-methoxyethoxy)butan-2-yl)-2-methyl-1H-pyrrolo[2,3-b]pyridine-3-carboxamide 2,2,2-trifluoroacetate] | – | – | 100 to 1000 | < 100 | –
COc1cc(C)[nH]c(=O)c1CNC(=O)c1c(C)n(C(C)COc2ccccn2)c2ncccc12 (racemic) [Compound 251, (±)-N-((4-methoxy-6-methyl-2-oxo-1,2-dihydropyridin-3-yl)methyl)-2-methyl-1-(1-(pyridine-2-yloxy)propan-2-yl)-1H-pyrrolo[2,3-b]pyridine-3-carboxamide] | 100 to 1000 | 100 to 1000 | – | – | –
Cc1cc(C)c(COC(=O)c2c(C)n(C3CCc4ccccc43)c3ccccc23)c(=O)[nH]1 (single isomer, unassigned) [Compound 213, (R or S)-(4,6-dimethyl-2-oxo-1,2-dihydropyridin-3-yl)methyl 1-(2,3-dihydro-1H-inden-1-yl)-2-methyl-1H-indole-3-carboxylate] | – | – | 100 to 1000 | < 100 | –
Cc1cc(C)c(CNC(=O)c2c(C)n(S(=O)(=O)N3CCCCC3)c3ncccc23)c(=O)[nH]1 [Compound 194, N-((4,6-dimethyl-2-oxo-1,2-dihydropyridin-3-yl)methyl)-2-methyl-1-(piperidin-1-ylsulfonyl)-1H-pyrrolo[2,3-b]pyridine-3-carboxamide] | 1000 to 10000 | 100 to 1000 | – | – | –
CCOC(C)C(C)n1c(C)c(C(=O)NCc2c(OC)cc(C)[nH]c2=O)c2ccccc21 (racemic) [Compound 290, (±)-1-(3-ethoxybutan-2-yl)-N-((4-methoxy-6-methyl-2-oxo-1,2-dihydropyridin-3-yl)methyl)-2-methyl-1H-indole-3-carboxamide] | – | – | 100 to 1000 | < 100 | –
COc1cc(C)[nH]c(=O)c1CNC(=O)c1c(C)n(C(C)C(C)OC)c2ncccc12 (single isomer, unassigned) [Compound 267, N-((4-methoxy-6-methyl-2-oxo-1,2-dihydropyridin-3-yl)methyl)-1-((2R or 2S, 3R or 3S)-3-methoxybutan-2-yl)-2-methyl-1H-pyrrolo[2,3-b]pyridine-3-carboxamide] | 100 to 1000 | < 100 | – | – | –

— US9371331B2, “Modulators of methyl modifying enzymes, compositions and uses thereof” (Constellation Pharmaceuticals, Inc., priority 2012, dated 2016)
